Assay results: ChEMBL document CHEMBL4825734, “Synthesis, activity and mechanism for double-ring conjugated enones” (Bioorg Med Chem Lett, 2021)
pIC50: −log10 of the molar value. Each block holds one molecule with its values, some of them ahead of it. The source made the active and inactive calls. The calls are words filed in the database; no cut-off is given here.

Legend:
Toll-like receptor 4 = Toll-like receptor 4 (Homo sapiens, UniProt O00206); experiment: Inhibition of TLR4 (unknown origin) by sandwich ELISA method
Chain of Toll-like receptor 4 (O00206 whole entry): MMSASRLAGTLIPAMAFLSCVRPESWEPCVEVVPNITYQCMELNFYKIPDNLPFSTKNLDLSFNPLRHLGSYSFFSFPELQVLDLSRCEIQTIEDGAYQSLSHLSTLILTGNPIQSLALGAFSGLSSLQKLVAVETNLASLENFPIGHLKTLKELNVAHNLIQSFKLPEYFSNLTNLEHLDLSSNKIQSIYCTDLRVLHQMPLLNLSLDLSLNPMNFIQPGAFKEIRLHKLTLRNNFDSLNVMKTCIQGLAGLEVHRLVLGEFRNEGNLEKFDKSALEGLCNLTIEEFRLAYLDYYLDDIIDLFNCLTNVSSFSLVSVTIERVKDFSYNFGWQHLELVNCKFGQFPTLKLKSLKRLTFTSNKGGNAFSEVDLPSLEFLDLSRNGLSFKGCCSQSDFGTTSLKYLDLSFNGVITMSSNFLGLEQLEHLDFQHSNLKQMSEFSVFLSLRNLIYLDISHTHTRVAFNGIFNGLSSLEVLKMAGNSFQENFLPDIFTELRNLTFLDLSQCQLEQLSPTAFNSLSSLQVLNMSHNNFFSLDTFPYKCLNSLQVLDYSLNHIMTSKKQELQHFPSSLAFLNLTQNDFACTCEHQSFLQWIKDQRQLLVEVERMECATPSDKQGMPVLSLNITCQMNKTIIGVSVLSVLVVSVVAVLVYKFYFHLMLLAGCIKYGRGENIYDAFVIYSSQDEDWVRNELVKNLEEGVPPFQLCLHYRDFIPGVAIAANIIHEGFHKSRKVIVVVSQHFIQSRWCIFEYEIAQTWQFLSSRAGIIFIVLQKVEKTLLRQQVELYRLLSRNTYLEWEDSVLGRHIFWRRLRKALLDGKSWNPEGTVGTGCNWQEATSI

Synovial cell [1] = experiment: Antiinflammatory activity in rat synovial cells assessed as decrease in LPS-induced TLR4 protein expression at 1 uM by DAPI staining based immunofluorescence microscopic analysis; assay type: functional
Synovial cell [2] = experiment: Antiinflammatory activity in LPS-stimulated rat synovial cells assessed as increase in IkappaB protein expression at 1 uM by DAPI staining based immunofluorescence microscopic analysis; assay type: functional
Synovial cell [3] = experiment: Antiinflammatory activity in rat synovial cells assessed as decrease in LPS-induced MyD88 protein expression at 1 uM by DAPI staining based immunofluorescence microscopic analysis; assay type: functional
Synovial cell [4] = experiment: Antiinflammatory activity in rat synovial cells assessed as downregulation of LPS-induced IL-1 beta production at 1 uM measured by ELISA; assay type: functional, cell-based
Synovial cell [5] = experiment: Inhibition of LPS-induced abnormal proliferation in rat synovial cells assessed as reduction in cell number at 1 uM; assay type: functional, cell-based
Synovial cell [6] = experiment: Induction of apoptosis in rat synovial cells assessed as increase in caspase-3 expression at 1 uM in presence of LPS by DAPI staining based immunofluorescence microscopic analysis; assay type: functional
Synovial cell [7] = experiment: Antiinflammatory activity in rat synovial cells assessed as decrease in LPS-induced NF-kappaB protein expression at 1 uM by DAPI staining based immunofluorescence microscopic analysis; assay type: functional
Synovial cell [8] = experiment: Induction of apoptosis in rat synovial cells assessed as green coloured positive apoptotic cells with nuclear pyknosis and chromatin condensation at 1 uM in presence of LPS by TUNEL staining based microscopic analysis; assay type: functional
Synovial cell [9] = experiment: Antiinflammatory activity in rat synovial cells assessed as downregulation of LPS-induced TNF-alpha production at 1 uM measured by ELISA; assay type: functional, cell-based
Synovial cell [10] = experiment: Antiinflammatory activity in rat synovial cells assessed as downregulation of LPS-induced IL-6 production at 1 uM measured by ELISA; assay type: functional, cell-based
Synovial cell [11] = experiment: Inhibition of LPS-induced cytomorphological changes in rat synovial cells assessed as reduction in refractive ability with irregular spindle or round shaped cell body at 1 uM; assay type: functional, cell-based

SMILES: C[C@H]1CCC2C(=O)CCC(=O)C=C2C1 (stereo partly specified)
- pIC50 (Toll-like receptor 4): 5.58

SMILES: CC(C)[C@H]1CCC2C(=O)CC(=O)C=C21 (stereo partly specified)
- pIC50 (Toll-like receptor 4): 5.60

SMILES: CCCC1CCC([C@@H]2CCC3=CC(=O)CC(=O)C3C2)CC1 (stereo partly specified)
- pIC50 (Toll-like receptor 4): 6.14

SMILES: O=C1C=C2CCCCC2C(=O)CC1 (stereo unspecified)
- pIC50 (Toll-like receptor 4): 5.73

SMILES: O=C1C=C2CC[C@@H](NC(=O)OCc3ccccc3)CC2C(=O)C1 (stereo partly specified)
- Activity (Synovial cell [1]): Active
- pIC50 (Toll-like receptor 4): 6.25
- Activity (Synovial cell [2]): Active
- Activity (Synovial cell [3]): Active
- Activity (Synovial cell [4]): Active
- inhibition (Synovial cell [5]): Active
- Activity (Synovial cell [6]): Active
- Activity (Synovial cell [7]): Active
- Activity (Synovial cell [8]): Active
- Activity (Synovial cell [9]): Active
- Activity (Synovial cell [10]): Active
- inhibition (Synovial cell [11]): Active

Further molecules by rising pIC50 (Toll-like receptor 4), results first:

- pIC50 (Toll-like receptor 4): 5.55
SMILES: CC(C)[C@H]1CCC2C(=O)CCC(=O)C=C21 (stereo partly specified)

- pIC50 (Toll-like receptor 4): 5.57
SMILES: O=C1C=C2C(CC[C@@H]2Cl)C(=O)C1 (stereo partly specified)

- pIC50 (Toll-like receptor 4): 5.81
SMILES: CCOC(=O)[C@H]1CCCC2C(=O)CC(=O)C=C21 (stereo partly specified)

- pIC50 (Toll-like receptor 4): 5.98
SMILES: CN(Cc1cnc2nc(N)nc(N)c2n1)c1ccc(C(=O)N[C@@H](CCC(=O)O)C(=O)O)cc1 [METHOTREXATE]
- Activity (Synovial cell [1]): Active
- Activity (Synovial cell [2]): Active
- Activity (Synovial cell [3]): Active
- Activity (Synovial cell [4]): Active
- inhibition (Synovial cell [5]): Active
- Activity (Synovial cell [6]): Active
- Activity (Synovial cell [7]): Active
- Activity (Synovial cell [8]): Active
- Activity (Synovial cell [9]): Active
- Activity (Synovial cell [10]): Active
- inhibition (Synovial cell [11]): Active
